Read-outs that look alike come from different tables or passages of the source.
Test: Phase 1 study Part 1: plasma PK and relative bioavailability of LUM-201 tablets vs capsule
Assay type: in vivo, human
Settings: for decrease of DNCmax as compared to the 90 mg tablet dose, fasted: statistically significant; for Tmax / AUC(0-inf) / AUC(0-t) / Cmax / half-life: human, plasma
Text: This study in healthy adult subjects was designed to establish the pharmacokinetic (PK) and pharmacodynamic (PD) profiles for the orally administered test product (coated mini-tablets in a capsule) and reference product (mini-tablet) to evaluate relative bioavailability in Part 1 and to evaluate the food effect on the bioavailability of test product (capsule only) in Part 2.
This was a single center, open-label, randomized, Phase 1 study in healthy adult subjects. This study consisted of 2 parts: Part 1 was a 4-sequence, 4-treatment, 4 Treatment Periods, crossover study to determine the relative bioavailability of current tablets to new capsule formulations of LUM-201; Part 2 was a 2-sequence, 2-treatment, 2 Treatment Periods, crossover study to evaluate the food effect on the bioavailability of the new capsule formulation of LUM-201. An individual subject was allowed to participate in only 1 part (Part 1 or Part 2) of the study. Forty subjects were planned and enrolled in this study. • Part 1: A total of 28 subjects were planned and enrolled in Part 1. Part 1 consisted of 4 sequences, each having 4 Treatment Periods enrolling 7 subjects (1:1:1:1 ratio). During Treatment Periods 1 through 4, each subject received 4 single oral doses of LUM-201 drug product in a randomized, crossover order. • Part 2: A total of 12 subjects were planned and enrolled in Part 2. Part 2 consisted of 2 sequences, each having 2 Treatment Periods enrolling 6 subjects (1:1 ratio). Each subject received a single oral dose of LUM-201 at each Treatment Period. During Treatment Periods 1 and 2, each subject received 2 single oral doses of LUM-201 in a randomized, crossover order. • On Day 1 of Treatment Period 1, subjects were administered the assigned treatment (A or B) as randomized, followed by a washout of at least 3 days between Treatment Periods 1 and 2. Subjects stayed in-house (not discharged) between the Treatment Periods. • Treatment A was dosed at 85.3 mg capsule formulation of LUM-201 (intact capsule consumed unopened) consumed while subject was in a fasted state with 240 mL of water. • Treatment B was dosed at 85.3 mg capsule formulation of LUM-201 (intact capsule consumed unopened) consumed 30 minutes after start of a high-fat meal with 240 mL of water. • Subjects were discharged from the study center on the morning of Day 3 of Treatment Period 2 after the scheduled study assessments had been completed.
• Treatment A (reference): five 18 mg oral tablets of LUM-201 were administered under fasted state with 240 mL of water. • Treatment B (test): a single 85.3 mg dose of oral capsule formulation of LUM-201 was administered as a whole capsule under fasted state with 240 mL of water. • Treatment C (test): a single 85.3 mg dose of oral capsule formulation of LUM-201 was administered by dosing capsule contents (dry) under fasted state with 240 mL of water. • Treatment D (test): a single 85.3 mg dose of oral capsule formulation of LUM-201 was mixed (capsule contents) with banana puree (2 teaspoons), followed by 240 mL of water and was ingested within 5 minutes under fasted state (Note: Banana Puree, single serve cup was used [118.3 mL]). […]

[1] = Part 1, Treatment D (test): 85.3 mg capsule contents in banana puree, oral, fasted
[2] = Part 1, Treatment D (test): 85.3 mg capsule contents in banana puree, oral, fasted, ANOVA
[3] = test Treatment B (85.3 mg whole capsule, fasted) to reference Treatment A (90 mg tablets, fasted)
[4] = test Treatment C (85.3 mg capsule contents in dosing cup, fasted) to reference Treatment A (90 mg tablets, fasted)
[5] = test Treatment D (85.3 mg capsule contents in banana puree) to reference Treatment A (90 mg tablets, fasted)

CC(C)(N)C(=O)N[C@H](COCc1ccccc1)C(=O)N1CCC2(CC1)CN(S(C)(=O)=O)c1ccccc12 [LUM-201, N-[1(R)-[(1,2-dihydro-1-methanesulfonylspiro[3H-indole-3,4′-piperdin]-yl)carbonyl]-2-(phenylmethyloxy)ethyl]-2-amino-2-methylpropanamide methanesulfonate]
DNAUC0-last, Geometric Mean [1]: 6.276 ng·h/mL/mg | DNCmax, Arithmetic Mean [1]: 1.422 ng/mL/mg | DNCmax, Geometric Mean [1]: 1.087 ng/mL/mg | t1/2, Geometric Mean [1]: 8.09 h | tlag, Median [1]: 0 h | tlast, Median [1]: 48.02 h | λz, Arithmetic Mean [1]: 0.0872 h⁻¹ | λz, Geometric Mean [1]: 0.0856 h⁻¹ | DNAUC0-inf, GLS Mean [2]: 6.38 ng·h/mL/mg | DNAUC0-last, GLS Mean [2]: 6.26 ng·h/mL/mg | DNCmax, GLS Mean [2]: 1.08 ng/mL/mg | decrease of DNCmax as compared to the 90 mg tablet dose, fasted (Treatment B: 85.3 mg whole capsule, fasted): 14.1% | decrease of DNCmax as compared to the 90 mg tablet dose, fasted (Treatment C: 85.3 mg capsule contents in a dosing cup, fasted): 20.4% | decrease of DNCmax as compared to the 90 mg tablet dose, fasted (Treatment D: 85.3 mg capsule contents in banana puree): 14.4% | Tmax (oral, Part 1, post-dose, Treatments A to D, read-out: median tmax, range over all four treatments): 0.782 to 1.23 h | AUC(0-inf) (po, 85.3 mg, Part 1, Treatment B (test): 85.3 mg whole capsule, oral, fasted, read-out: AUC0-inf, Arithmetic Mean): 566 ng·h/mL | AUC(0-inf) (po, 85.3 mg, Part 1, Treatment B (test): 85.3 mg whole capsule, oral, fasted, read-out: AUC0-inf, Geometric Mean): 512 ng·h/mL | AUC(0-t) (po, 85.3 mg, Part 1, Treatment B (test): 85.3 mg whole capsule, oral, fasted, read-out: AUC0-last, Arithmetic Mean): 557 ng·h/mL | AUC(0-t) (po, 85.3 mg, Part 1, Treatment B (test): 85.3 mg whole capsule, oral, fasted, read-out: AUC0-last, Geometric Mean): 504 ng·h/mL | Cmax (po, 85.3 mg, Part 1, Treatment B (test): 85.3 mg whole capsule, oral, fasted, read-out: Cmax, Arithmetic Mean): 115 ng/mL | Cmax (po, 85.3 mg, Part 1, Treatment B (test): 85.3 mg whole capsule, oral, fasted, read-out: Cmax, Geometric Mean): 93.2 ng/mL | half-life (po, 85.3 mg, Part 1, Treatment B (test): 85.3 mg whole capsule, oral, fasted, read-out: t1/2, Arithmetic Mean (converted)): 8.19 h | half-life (po, 85.3 mg, Part 1, Treatment B (test): 85.3 mg whole capsule, oral, fasted, read-out: t1/2, Geometric Mean (converted)): 8.06 h | Tmax (po, 85.3 mg, Part 1, Treatment B (test): 85.3 mg whole capsule, oral, fasted, read-out: tmax, Median): 1.23 h | AUC(0-inf) (po, 85.3 mg, Part 1, Treatment C (test): 85.3 mg capsule contents (dry), oral, fasted, read-out: AUC0-inf, Arithmetic Mean): 583 ng·h/mL | AUC(0-inf) (po, 85.3 mg, Part 1, Treatment C (test): 85.3 mg capsule contents (dry), oral, fasted, read-out: AUC0-inf, Geometric Mean): 534 ng·h/mL | AUC(0-t) (po, 85.3 mg, Part 1, Treatment C (test): 85.3 mg capsule contents (dry), oral, fasted, read-out: AUC0-last, Arithmetic Mean): 573 ng·h/mL | AUC(0-t) (po, 85.3 mg, Part 1, Treatment C (test): 85.3 mg capsule contents (dry), oral, fasted, read-out: AUC0-last, Geometric Mean): 524 ng·h/mL | Cmax (po, 85.3 mg, Part 1, Treatment C (test): 85.3 mg capsule contents (dry), oral, fasted, read-out: Cmax, Arithmetic Mean): 98.9 ng/mL | Cmax (po, 85.3 mg, Part 1, Treatment C (test): 85.3 mg capsule contents (dry), oral, fasted, read-out: Cmax, Geometric Mean): 86.5 ng/mL | half-life (po, 85.3 mg, Part 1, Treatment C (test): 85.3 mg capsule contents (dry), oral, fasted, read-out: t1/2, Arithmetic Mean (converted)): 8.58 h | half-life (po, 85.3 mg, Part 1, Treatment C (test): 85.3 mg capsule contents (dry), oral, fasted, read-out: t1/2, Geometric Mean (converted)): 8.47 h | Tmax (po, 85.3 mg, Part 1, Treatment C (test): 85.3 mg capsule contents (dry), oral, fasted, read-out: tmax, Median): 1.12 h | AUC(0-inf) (po, 85.3 mg, Part 1, Treatment D (test): 85.3 mg capsule contents in banana puree, oral, fasted, read-out: AUC0-inf, Arithmetic Mean): 629 ng·h/mL | AUC(0-inf) (po, 85.3 mg, Part 1, Treatment D (test): 85.3 mg capsule contents in banana puree, oral, fasted, read-out: AUC0-inf, Geometric Mean): 546 ng·h/mL | AUC(0-t) (po, 85.3 mg, Part 1, Treatment D (test): 85.3 mg capsule contents in banana puree, oral, fasted, read-out: AUC0-last, Arithmetic Mean): 619 ng·h/mL | AUC(0-t) (po, 85.3 mg, Part 1, Treatment D (test): 85.3 mg capsule contents in banana puree, oral, fasted, read-out: AUC0-last, Geometric Mean): 535 ng·h/mL | Cmax (po, 85.3 mg, Part 1, Treatment D (test): 85.3 mg capsule contents in banana puree, oral, fasted, read-out: Cmax, Arithmetic Mean): 121 ng/mL | Cmax (po, 85.3 mg, Part 1, Treatment D (test): 85.3 mg capsule contents in banana puree, oral, fasted, read-out: Cmax, Geometric Mean): 92.7 ng/mL | half-life (po, 85.3 mg, Part 1, Treatment D (test): 85.3 mg capsule contents in banana puree, oral, fasted, read-out: t1/2, Arithmetic Mean (converted)): 8.23 h | half-life (po, 85.3 mg, Part 1, Treatment D (test): 85.3 mg capsule contents in banana puree, oral, fasted, read-out: t1/2, Geometric Mean (converted)): 8.1 h | Tmax (po, 85.3 mg, Part 1, Treatment D (test): 85.3 mg capsule contents in banana puree, oral, fasted, read-out: tmax, Median): 1.03 h | AUC(0-inf) (po, 90 mg, Part 1, Treatment A (reference): five 18 mg tablets (90 mg), oral, fasted, read-out: AUC0-inf, Arithmetic Mean): 630 ng·h/mL | AUC(0-inf) (po, 90 mg, Part 1, Treatment A (reference): five 18 mg tablets (90 mg), oral, fasted, read-out: AUC0-inf, Geometric Mean): 562 ng·h/mL | AUC(0-t) (po, 90 mg, Part 1, Treatment A (reference): five 18 mg tablets (90 mg), oral, fasted, read-out: AUC0-last, Arithmetic Mean): 620 ng·h/mL | AUC(0-t) (po, 90 mg, Part 1, Treatment A (reference): five 18 mg tablets (90 mg), oral, fasted, read-out: AUC0-last, Geometric Mean): 552 ng·h/mL | Cmax (po, 90 mg, Part 1, Treatment A (reference): five 18 mg tablets (90 mg), oral, fasted, read-out: Cmax, Arithmetic Mean): 132 ng/mL | Cmax (po, 90 mg, Part 1, Treatment A (reference): five 18 mg tablets (90 mg), oral, fasted, read-out: Cmax, Geometric Mean): 114 ng/mL | half-life (po, 90 mg, Part 1, Treatment A (reference): five 18 mg tablets (90 mg), oral, fasted, read-out: t1/2, Arithmetic Mean (converted)): 7.95 h | half-life (po, 90 mg, Part 1, Treatment A (reference): five 18 mg tablets (90 mg), oral, fasted, read-out: t1/2, Geometric Mean (converted)): 7.83 h | Tmax (po, 90 mg, Part 1, Treatment A (reference): five 18 mg tablets (90 mg), oral, fasted, read-out: tmax, Median): 0.782 h | DNAUC0-inf, Geo LSM Ratio % [3]: 95.50% | DNAUC0-last, Geo LSM Ratio % [3]: 95.50% | DNCmax, Geo LSM Ratio % [3]: 85.90% | DNAUC0-inf, Geo LSM Ratio % [4]: 99.50% | DNAUC0-last, Geo LSM Ratio % [4]: 99.40% | DNCmax, Geo LSM Ratio % [4]: 79.60% | DNAUC0-inf, Geo LSM Ratio % [5]: 102.20% | DNAUC0-last, Geo LSM Ratio % [5]: 102.00% | DNCmax, Geo LSM Ratio % [5]: 85.60%

From patent publication US20250332149A1, “PIPERIDINE COMPOUNDS AND PHARMACEUTICAL COMPOSITIONS” (Lumos Pharma, Inc., priority 2024, published 2025)
